Experiments:
SW620 cells = assay: SW620 cell viability assay (Cell Titer Glo); type: cell-based; conditions: 9 serial dilutions between 10 and 0.002 μM, without MEK inhibitor
Method: The present invention also includes combinations of the BRaf inhibitors disclosed in this invention with other agents. In particular, the present invention provides for combinations with MEK1/2 inhibitors. FIG. 1 illustrates that the addition of a MEK small molecule inhibitor can reverse the induced ERK signaling, cell growth and transformation caused by a Raf small molecule inhibitor.
SW620 cells were seeded in 1640 RPMI+10% FBS at a density of 1500 cells per 96-well in black walled, clear bottom tissue culture treated plates. Test compounds were serially diluted in DMSO then added to the cells (final DMSO concentration of 0.1%) and incubated at 37° C. and 5% CO2 for 4 days. To measure cell viability, cell plates were brought to room temperature, culture media was removed, and 200 µl of Cell Titer-Glo reagent (Promega, kit components mixed as per the manufacturer's protocol then diluted 1:2 with growth media) was added to each well. Plates were shaken for 5 minutes, then incubated at room temperature for 5 minutes, and the luminescence was measured (Trilux, Perkin Elmer).

A375 cells = assay: A375 Cellular Proliferation Assay (A375 CP); type: cell-based; conditions: A375-luc cells, 2 days
Method: A375-luc cells engineered to express luciferase are plated to 384-well white clear bottom plates as 1,500 cells/50 μl/well in DMEM containing 10% FBS. Compounds of the invention dissolved in 100% DMSO at appropriate concentrations are transferred to the cells by a robotic Pin Tool (100 nl). The cells are incubated for 2 days at […], then 25 μl of BrightGlo™ is added to each well and the plates are read by luminescence. The concentration of each compound for 50% inhibition (IC50) was calculated by non-linear regression using XL Fit data analysis software.

[1] = Liver microsomal clearance assay, human; type: in vitro ADME; conditions: extraction ratio, human liver microsomes, 1 μM compound
Method: (§1) Liver Microsomal Clearance Assay
(§2) The in vitro microsomal clearance assay is designed to assess potential risks associated with hepatic metabolic stability of compounds. The test compound (1 μM) was incubated with liver microsomes (0.5 mg/mL) from different species (mouse, rat, monkey, dog and human) and NADPH (1 mM) in 100 mM potassium phosphate buffer at 37° C. At specific reaction time points (0, 5, 10 and 30 minutes), reaction aliquots were removed and reactions were terminated by addition of ice cold acetonitrile containing mass spectrometry internal standard. The samples were centrifuged and the supernatants were analyzed by LC-MS/MS. In vitro metabolic half-life (t1/2, min) and intrinsic clearance (CLint, μL/min/mg) are based on the rate and extent of metabolism of the test compound as determined by the disappearance of the parent compound from the reaction mixture. These values may be scaled to predict hepatic metabolic clearance rate (CLh, mL/min/kg) and extraction ratio (ER, expressed as a ratio of the predicted hepatic metabolic clearance to hepatic blood flow in that species). In general, compounds with high predictedCLint or ER in vitro are considered to be at high risk for exposure-limiting metabolism in vivo.

[2] = Liver microsomal clearance assay, mouse; type: in vitro ADME; conditions: extraction ratio, mouse liver microsomes, 1 μM compound
Method: as §1, §2

[3] = In vivo pharmacokinetics assay in mouse
Method: (§3) Full pharmacokinetics study: Male Balb/c mice (n=3, body weights 22-25 g) or male Wistar rats (n=3, body weights 250-300 g) were administered the test compound intravenously via the lateral tail vein or orally via gavage. […] Six blood samples of 50 μL each were collected serially for 24 h after dosing. The blood samples were centrifuged to separate the plasma. Plasma samples were analyzed and quantified by LC-MS/MS.
as §3, with “Rapid” for “Full”, “intravenously (IV)” for “intravenously”, “orally (PO)” for “orally”, “Blood” for “The blood”, “and plasma separated and pooled across” for “to separate”, “three animals at each time point per dose route.” for “plasma.”
For both full and rapid pharmacokinetics studies, the following parameters were calculated by non-compartmental regression analysis using Winnonlin 5.0 software (Pharsight, Mountain View, Calif., USA): plasma clearance (Cl), plasma maximum concentration (Cmax), plasma area-under-the-concentration-time-curve (AUC0-inf) and percent oral bioavailability (F %).

For `COC(=O)N[C@@H](C)CNc1nccc(-c2cn(C(C)C)nc2-c2cc(Cl)cc(NS(C)(=O)=O)c2F)n1` [Compound 9, Methyl N-[(2S)-1-({4-[3-(5-chloro-2-fluoro-3-methanesulfonamidophenyl)-1-(propan-2-yl)-1H-pyrazol-4-yl]pyrimidin-2-yl}amino)propan-2-yl]carbamate], the “cellular proliferation (Cell Titer Glo, FIG. 1)” value (SW620 cells) was “induction in cellular proliferation”.
In the case of “methyl N-[(2S)-1-[(4-{3-[2-fluoro-3-(propane-1-sulfonamido)phenyl]-1-(propan-2-yl)-1H-pyrazol-4-yl}pyrimidin-2-yl)amino]propan-2-yl]carbamate [Compound 3]”, the IC50 (A375 cells) is reported as 2 nM, the “ER Human” value [1] is reported as 0.69 and the “ER Mouse” value [2] is reported as 0.85. The Cmax ([3]; PO 5 mg/kg, n = 1) was 70 nM, the “PO AUC” value ([3]; PO 5 mg/kg, n = 1) was 0.20 (n = 1) hrs*μM and the F ([3]; PO/IV 5/2 mg/kg, n = 1) was 6 (n = 1) %. For the same molecule, the Cl ([3]; plasma clearance, IV 2 mg/kg) was 51 (n = 1) mL/min/kg.

Reference: patent USRE49556E1, “Compounds and compositions as protein kinase inhibitors” (Array BioPharma Inc., priority 2009, dated 2023)
